We go through 18 molecules from PMC8537746, “New Pyridone-Based Derivatives as Cannabinoid Receptor Type 2 Agonists” (International Journal of Molecular Sciences, 2021).

Data set [1] has as its target CB2. Further details: method as in PMID 11597467, PMID 23623258, PMID 23395112, PMID 21702498, PMID 17004710. As to conditions: Figure 1; cited from earlier work.
The target in data set [2] is T1, human cannabinoid receptor type II (CB2R) (Homo sapiens, UniProt P34972).
T1 construct: host or cells: CHO cells
Kind of data set: Human CB2R cAMP agonist cellular functional assay (Eurofins Cerep). As to conditions: for % CB2R Agonist Response: 10 µM, CHO cells expressing hCB2R, percentage relative to control (100 nM WIN55212-2), rounded mean of two assays; for EC50: EC50, intracellular cAMP, CHO-hCB2R. It is filed as cell-based. How it is done: Functional evaluation was carried out by Eurofins Cerep service assay: CB2 Human Cannabinoid GPCR Cell Based Agonist cAMP Assay. CHO cells stably expressing hCB2R (Eurofins Cerep) are suspended in HBSS buffer (Invitrogen) complemented with 20 mM HEPES (pH 7.4), then distributed in microplates at a density of 7.5 × 10^3 cells/well in the presence of either of the following: HBSS (basal control), the reference agonist at 100 nM (stimulated control) or various concentrations (EC50 determination), or the test compounds. Thereafter, the adenylyl cyclase activator NKH 477 is added at a final concentration of 3 μM. Following 10 min incubation at 37 °C, the cells are lysed, and the fluorescence acceptor (D2-labeled cAMP) and fluorescence donor (anti-cAMP antibody labeled with europium cryptate) are added. After 60 min at room temperature, the fluorescence transfer is measured at λex = 337 nm and λem = 620 and 665 nm using a microplate reader (Envison, Perkin Elmer). The cAMP concentration is determined by dividing the signal measured at 665 nm by that measured at 620 nm (ratio). The results are expressed as a percent of the control response to 100 nM WIN55212-2. The standard reference agonist is WIN 55212-2, which is tested in each experiment at several concentrations to generate a concentration-response curve from which its EC50 value is calculated.

Data set [3] relates to HepG2 cells. Put plainly: Neutral red uptake cell viability assay, HepG2. As to conditions: for IC50: Homo sapiens, HepG2, 72 h, read-out: IC50 HepG2. How it is done: (§1) Two different cell lines were used: HepG2 as a model of hepatic tissue; and HL-60 cells as a model of blood cells. Low levels of expression of CBR exists in normal liver however, several pathological conditions have shown high upregulation of hepatic CB2R [28].
(§2) Cell lines were grown in culture media supplemented with 10% fetal bovine serum (FBS), 100 U/mL of penicillin, 100 μg/mL of streptomycin and 1% of non-essential aminoacids. Cells between passage 5 to 10 were used in experiments. Dulbecco’s Modified Eagle Medium (DMEM) was used for HepG2 cells and Roswell Park Memorial Institute (RPMI) was used for HL-60 cells. […] All cellular lines used were provided by Dr. Mario Faúndez, Laboratory of Molecular Pharmacology, Faculty of Chemistry and Pharmacy, Pontificia Universidad Católica de Chile.
(§3) The effect of compounds in cell viability was determined by Neutral Red uptake assay. Cells were seeded in 100 μL of media at a density of 10^4 cells/well in 96-well microtiter plates. Solutions of compounds were previously prepared in DMSO and 1 μL of the corresponding solution was added to each well. The final volume of each well was adjusted to 200 μL. After 72 h of incubation, culture media was removed and 100 μL of 10 μg/mL neutral red solution prepared in culture media was added to each well and incubated for 3 h. Then, media was aspirated, the plate was washed three times with PBS 1X and 100 μL of neutral red distain solution (50:49:1 ethanol:water:glacial acetic acid) was added. The plate was placed for 15 min in a shaker and fluorescence was measured using Cytation 5 apparatus (Biotek, Winooski, VT, USA) at 530/645 nm excitation/emission wavelengths.

For data set [4], the system named is HL-60 cells. Put plainly: Neutral red uptake cell viability assay, HL-60. As to conditions: Homo sapiens, HL-60, 72 h, read-out: IC50 HL-60. How it is done:
as §1, §2, §3

Data set [5] in a line: Neutral red uptake cell viability assay, HL-60. As to conditions: human. How it is done:
as §1, §2, §3

Bounds are passed on as bounds.

T1 sequence (P34972 whole entry): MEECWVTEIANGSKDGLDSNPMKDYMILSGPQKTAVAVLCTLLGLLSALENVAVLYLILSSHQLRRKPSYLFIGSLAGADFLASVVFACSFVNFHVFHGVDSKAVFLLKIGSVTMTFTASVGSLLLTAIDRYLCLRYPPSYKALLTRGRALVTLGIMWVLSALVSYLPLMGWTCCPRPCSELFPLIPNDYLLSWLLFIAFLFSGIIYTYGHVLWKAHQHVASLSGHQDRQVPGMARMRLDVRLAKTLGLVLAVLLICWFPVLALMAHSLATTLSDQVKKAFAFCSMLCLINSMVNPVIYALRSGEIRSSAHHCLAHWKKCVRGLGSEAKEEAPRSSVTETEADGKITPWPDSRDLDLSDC

Turning to `CCOC(=O)CC#N` [Compound 1], the Ki in data set [1] is 0.2 nM.

Take `N#CCC(=O)NN` [Compound 2]: in data set [1], the Ki was 14 nM.

In the case of `Cc1cc(C)n(-c2ccccc2)c(=O)c1C(=O)NC1CCCCC1` [Compound 8a, N-cyclohexyl-4,6-dimethyl-2-oxo-1-phenyl-1,2-dihydropyridine-3-carboxamide], the melting point is 139 to 140 °C. In data set [2], the “% CB2R Agonist Response” value is 12%.

In the case of `COc1ccc2c(=O)c(C(=O)NC3CCCCC3)cn(Cc3ccc(F)cc3)c2n1` [Compound 4], the Ki in data set [1] was 11 nM.

On to `Cc1cc(C)n(-c2ccc(O)cc2)c(=O)c1C(=O)NC1CCCCC1` [Compound 8g, N-cyclohexyl-1-(4-hydroxyphenyl)-4,6-dimethyl-2-oxo-1,2-dihydropyridine-3-carboxamide], for which the melting point lay in the range of 139 to 140 °C. For the same molecule, the “% CB2R Agonist Response” value in data set [2] is 4%.

Take `Cc1cc(C)n(-c2ccc(O)cc2)c(=O)c1C(=O)Nc1nc2ccccc2[nH]1` [Compound 7f, N-(1H-benzo[d]imidazol-2-yl)-1-(4-hydroxyphenyl)-4,6-dimethyl-2-oxo-1,2-dihydropyridine-3-carboxamide]: the melting point fell in the range of 176 to 178 °C. The “% CB2R Agonist Response” value in data set [2] turned out to be 13%.

On to `Cc1ccc(-n2c(C)cc(C)c(C(=O)Nc3nc4ccccc4o3)c2=O)cc1` [Compound 7d, N-(benzo[d]oxazol-2-yl)-4,6-dimethyl-2-oxo-1-(4-methylphenyl)-1,2-dihydropyridine-3-carboxamide], for which the “% CB2R Agonist Response” value in data set [2] is 0%.

Molecule `Cc1cc(C)n(-c2ccccc2)c(=O)c1C(=O)NC1CCCCCC1` [Compound 8b, N-cycloheptyl-4,6-dimethyl-2-oxo-1-phenyl-1,2-dihydropyridine-3-carboxamide] gave a melting point of 138 to 140 °C. Also, in data set [3], the IC50 is greater than 200000 nM. For the same molecule, in data set [4], the IC50 is greater than 100000 nM.

For the molecule `Cc1ccc(-n2c(C)cc(C)c(C(=O)NC3CCCCCC3)c2=O)cc1` [Compound 8e, N-cycloheptyl-4,6-dimethyl-2-oxo-(4-methylphenyl)-1,2-dihydropyridine-3-carboxamide], the melting point lay within 238 to 240 °C. Also, the “% CB2R Agonist Response” value in data set [2] stood at 0%.

Molecule `Cc1ccc(-n2c(C)cc(C)c(C(=O)Nc3nc4ccccc4[nH]3)c2=O)cc1` [Compound 7e, N-(1H-benzo[d]imidazol-2-yl)-4,6-dimethyl-2-oxo-1-(4-methylphenyl)-1,2-dihydropyridine-3-carboxamide] had a melting point of 198 to 200 °C. In addition, in data set [2], the “% CB2R Agonist Response” value is 0%.

`Cc1cc(C)n(-c2ccc(O)cc2)c(=O)c1C(=O)NC1CCCCCC1` [Compound 8f, N-cycloheptyl-1-(4-hydroxyphenyl)-4,6-dimethyl-2-oxo-1,2-dihydropyridine-3-carboxamide] gave a melting point of 232 to 233 °C. In addition, the “% CB2R Agonist Response” value in data set [2] is reported as 0%.

On to `Cc1ccc(-n2c(C)cc(C)c(C(=O)NC34CC5CC(CC(C5)C3)C4)c2=O)cc1` [Compound 8d, N-(adamantan-1-yl)-4,6-dimethyl-2-oxo-1-(4-methylphenyl)-1,2-dihydropyridine-3-carboxamide], for which the melting point lay in the range of 154 to 155 °C. In addition, the EC50 in data set [2] was 112 nM. In data set [2] (n = 3), the EC50 stood at 110 nM. Besides, the IC50 in data set [3] is greater than 200000 nM. Besides, the “effect on cell viability in HepG2 cells” value in data set [3] (concentrations as high as 200 μM, compared to control) was “did not show significant effect on cell viability”. Besides, in data set [4], the IC50 is greater than 100000 nM. The same molecule showed a viability at 72 h, 200 µM in data set [5] of 10%.

On to `Cc1cc(C)n(C(=O)CC#N)n1` [Compound 3], for which the melting point was 119 to 121 °C. In addition, the Ki in data set [1] was 0.6 nM.

For the molecule `O=C(NC1CCCCCC1)c1cn2c3c(cccc3c1=O)OCC2c1ccccc1` (stereo not drawn) [Compound 5], the Ki in data set [1] is 0.81 nM.

`Cc1cc(C)n(-c2ccccc2)c(=O)c1C(=O)Nc1nc2ccccc2[nH]1` [Compound 7b, N-(1H-benzo[d]imidazol-2-yl)-4,6-dimethyl-2-oxo-1-phenyl-1,2-dihydropyridine-3-carboxamide] gave a melting point of 177 to 179 °C. Besides, in data set [2], the “% CB2R Agonist Response” value came to 8%. Also, in data set [3], the IC50 is greater than 200000 nM. The IC50 in data set [4] was greater than 100000 nM.

Molecule `Cc1cc(C)n(-c2ccccc2)c(=O)c1C(=O)NC12CC3CC(CC(C3)C1)C2` [Compound 8c, N-(adamantan-1-yl)-4,6-dimethyl-2-oxo-1-phenyl-1,2-dihydropyridine-3-carboxamide] yielded a melting point of 164 to 165 °C. In data set [3], the IC50 is greater than 200000 nM. In addition, the IC50 in data set [4] was greater than 100000 nM.

`Cc1cc(C)n(-c2ccccc2)c(=O)c1C(=O)Nc1nc2ccccc2o1` [Compound 7c, N-(benzo[d]oxazol-2-yl)-4,6-dimethyl-2-oxo-1-phenyl-1,2-dihydropyridine-3-carboxamide]: the melting point is 228 to 230 °C. For the same molecule, the “% CB2R Agonist Response” value in data set [2] is on record as 13%.

The molecule `Cc1cc(C)n(-c2ccccc2)c(=O)c1C(=O)Nc1nc2ccccc2s1` [Compound 7a, N-(benzo[d]thiazol-2-yl)-4,6-dimethyl-2-oxo-1-phenyl-1,2-dihydropyridine-3-carboxamide] registered a melting point of 163 to 165 °C.

What is called Ki is the dissociation constant of the complex between target and ligand, obtained from inhibition or displacement. The melting point is the temperature of the solid-liquid transition. The IC50 is the concentration needed to halve the response being measured. As usually defined, the EC50 is the concentration needed to bring the measured effect to its halfway point. Higher therefore signals lower potency in that assay. Broadly, the viability is a per cent measure of how many cells are alive, often set against a control.
